{"source": "patent US12617757B2", "about": "“Compounds and modules for inhibition of pre-miR-21 and their use in treatment of certain cancers” (University of Florida Research Foundation, Incorporated, priority 2019, dated 2026)", "key": {"[1]": {"system": "pre-miR-21", "assay": "RT-qPCR of mature miR-21 and pre-miR-21 levels in MDA-MB-231 cells", "type": "cell-based, human", "settings": "for period over which significantly decreased miR-21 levels were observed after a single dose: Formula 2 1000 nM, Formula 5 50 nM; for effect on mature miR-21 levels / effect on pre-miR-21 levels: MDA-MB-231, RT-qPCR; for effect on pre-miR-21 upon siRNA ablation of RNase L: 5 at 50 nM", "method": "(§1) Cell culture compound treatment and transfection. For treatment with compounds, stocks in DMSO or water were diluted in growth media and added to cells for 24-72 h. For transfection of plasmid DNA to overexpress the miR-21 hairpin precursor in pcDNA3.1 (Addgene 21114) or pcDNA3-RNaseL (R. H. Silverman, Cleveland Clinic^24) in 24-well plates, Lipofectamine 2000 was used according to the manufacturer's protocol. After transfection, the medium was removed and replaced with growth medium containing compound prepared as described above. For transfection of a control (Santa Cruz Biotechnology: sc-37007) or RNase L targeting siRNA (Santa Cruz Biotechnology: sc-45965), Lipofectamine RNAiMAX Reagent was used for transfection of oligonucleotides, including 2′-5′ A4, according to the manufacturer's protocol."}, "[2]": {"system": "miR-21 in various cancer cell lines", "assay": "RT-qPCR of mature miR-21 in various cancer cell lines", "type": "cell-based"}, "[3]": {"system": "MDA-MB-231 cells", "assay": "Boyden chamber invasion assay, MDA-MB-231", "type": "cell-based, human", "settings": "for effect on invasion: MDA-MB-231, LNA-21 100 nM, 2 1000 nM; for effect on invasion upon transient expression of pre-miR-21: MDA-MB-231 + pre-miR-21", "method": "(§2) Boyden Chamber Invasion Assay. The MDA-MB-231, MDA-LM2, A375, A549, or MCF-10a cells (5×10^4) were seeded into Hanging Cell Culture Inserts for 24 well plates with uncoated membranes with 8.0 μm pores (Millicell) in serum free growth media. A 3 mg/mL layer (100 μL) of Matrigel (Fisher Scientific: CB40234) diluted with serum free growth media was prepared inside of each membrane. Cells were cultured as described above, with or without compound treatment, and allowed to invade towards complete growth media in the bottom well for 16-24 h before ending the experiment by removing the media in the bottom wells and inserts. The hanging cell culture inserts and bottom wells were washed twice with 1×PBS, gently shaking to mix. Excess liquid and cells inside the insert were removed with cotton swabs, after which 400 μL of 4% paraformaldehyde was placed into the bottom well and incubated for 20 min at room temperature to fix the cells. The wells and inserts were washed twice with 1×PBS and then treated with 400 μL of 0.1% crystal violet solution for 20 min at room temperature to stain the cells. The wells and inserts were washed twice with water, followed by one wash with 1×PBS. Inserts were dried with cotton swabs to remove extra stain and cells inside the insert, then were air-dried, followed by Brightfield microscopic analysis using a Leica DMI3000 B upright fluorescent microscope. Four different fields of view from each captured image were counted for crystal violet stained or unstained cells. Normalized cells invaded was calculated with equation 5 (Eq 5): […]\n(§3) where stained cells represent cells counted with crystal violet stain observed in the compound treated or vehicle treated samples, respectively."}, "[4]": {"system": "PDCD4", "assay": "PDCD4 Western blot in MDA-MB-231 cells", "type": "cell-based, human", "settings": "for effect on PDCD4 protein levels: Western blotting relative to β-actin", "method": "PDCD4 Western blot: The MDA-MB-231 cells were grown to ˜60% confluency in 6-well plates. Cells were incubated with compounds diluted in growth media for 48 h. Total protein was extracted using M-PER Mammalian Protein Extraction Reagent (Pierce Biotechnology) supplemented with 1×Protease Inhibitor Cocktail III for Mammalian Cells (Research Products International Corp.) per the manufacturer's protocol. Total protein lysate was quantified using a Micro BCA Protein Assay Kit (Pierce Biotechnology). A 30 μg aliquot of total protein was resolved on a 10% Bis-Tris SDS-polyacrylamide gel, with a 5% stacking layer, and then transferred to a PVDF membrane. The membrane was then blocked in 5% (w/v) nonfat dry milk in 1×TBST for 1 h at room temperature. The membrane was then incubated with 1:2000 rabbit mAb PDCD4 primary antibody (Cell Signaling Technology: D29C6) in 1×TBST containing 5% nonfat dry milk overnight at 4° C. The membrane was washed five times for 5 min each with 1×TBST and then incubated with 1:5000 anti-rabbit IgG horseradish peroxidase secondary antibody conjugate (Cell Signaling Technology: 7074S) in 1×TBST containing 5% nonfat dry milk for 1 h at room temperature. After washing seven times for 5 min each with 1×TBST, protein levels were quantified by chemiluminescence using a SuperSignal West Pico Chemiluminescent Substrate (Pierce Biotechnology) per the manufacturer's recommendations. The membrane was stripped with 1×Stripping Buffer (200 mM glycine, pH 2.2, 1% Tween-20 and 0.1% SDS) two times for 5 min each, followed by washing 3 times in 1×TBST. Then, the membrane was blocked and probed for β-actin following the same procedure described above using 1:5000 mouse β-actin primary antibody (Cell Signaling Technology: 8H10D10). The membrane was washed five times with 1×TBST and incubated with 1:10000 anti-mouse IgG horseradish-peroxidase secondary antibody conjugate (Cell Signaling Technology: 7076S). After washing seven times with 1×TBST for 5 min each, protein levels were quantified as described above. ImageJ software was used to quantify band intensities."}, "[5]": {"system": "A549 cells", "assay": "Boyden chamber invasion assay, A549", "type": "cell-based", "settings": "LNA-21 100 nM, 2 1000 nM", "method": "as §2, with “The wells and inserts were washed twice with 1×PBS and then treated with 400 μL of 0.1% crystal violet solution for 20 min at room temperature to stain the cells. The wells and inserts were washed twice with water, followed by one wash with 1×PBS. Inserts were dried with cotton swabs to remove extra stain and cells inside the insert, then were air-dried, followed by Brightfield microscopic analysis using a Leica DMI3000 B upright fluorescent microscope.” left out\nas §3"}, "[6]": {"system": "pre-miR-21 BP RNA", "assay": "In vitro Dicer processing of pre-miR-21 BP", "type": "biochemical", "description": "In vitro Dicer processing. […] Cleavage products were resolved on a denaturing 15% polyacrylamide gel, which was imaged using a Molecular Dynamics Typhoon phosphorimager and quantified with Bio-Rad's QuantityOne software, normalizing to full length RNA."}, "[7]": {"system": "A375 cells", "assay": "Boyden chamber invasion assay, A375", "type": "cell-based", "settings": "LNA-21 100 nM, 2 1000 nM", "method": "as §2, with “The wells and inserts were washed twice with 1×PBS and then treated with 400 μL of 0.1% crystal violet solution for 20 min at room temperature to stain the cells. The wells and inserts were washed twice with water, followed by one wash with 1×PBS. Inserts were dried with cotton swabs to remove extra stain and cells inside the insert, then were air-dried, followed by Brightfield microscopic analysis using a Leica DMI3000 B upright fluorescent microscope.” left out\nas §3"}, "[8]": {"system": "IFN-γ", "assay": "IFN-γ ELISA of MDA-MB-231 supernatant", "type": "cell-based, human", "method": "Measurement of IFN-γ: The MDA-MB-231 cells were plated into a 24-well plate and allowed to grow to 70% confluency. Cells were transfected with 2′-5′ A4 using Lipofectamine RNAiMAX (Life Technologies). Alternatively, MDA-MB-231 cells were mock transfected and treated with vehicle (DMSO) or 5 (5, 50, 500, 5000 nM). Cell culture supernatant was removed at 24 h. The Human IFN-γ ELISA Kit (Bon Opus Biosciences: BE010020) was used to measure interferon gamma levels from the supernatants, per the manufacturer's instructions."}, "[9]": {"system": "MCF-10a cells", "assay": "Boyden chamber invasion assay, MCF-10a", "type": "cell-based", "settings": "for effect on invasion induced by overexpression of pre-miR-21: MCF-10a + pre-miR-21", "method": "as §2, §3"}, "[10]": {"system": "Ifng, OAS1, RIG-I, MDA5 mRNAs", "assay": "RT-qPCR of antiviral innate immune response mRNAs in MDA-MB-231 cells", "type": "cell-based, human", "method": "as §1"}}, "note": "“Also recorded” adds a separate entry of the source. Like-named read-outs stand apart in the source and are kept apart here."}
{"smiles": "CCCN(CC(=O)N(CCC)CC(=O)N(CCC)CC(=O)N(CC(N)=O)Cc1cn(CCCNC(=O)CCCOc2ccc(-c3nc4cc(-c5ccc(N6CCN(C)CC6)cc5)ccc4[nH]3)cc2)nn1)C(=O)CNCc1cn(CCCNC(=O)CCCOc2ccc(-c3nc4cc(-c5ccc(N6CCN(C)CC6)cc5)ccc4[nH]3)cc2)nn1", "note": "[Compound 2]", "values": [{"measurement": "period over which significantly decreased miR-21 levels were observed after a single dose", "setting": "[1]; MDA-MB-231", "result": 48, "unit": "h"}, {"measurement": "effect on mature miR-21 levels", "setting": "[1]", "result": "decreased miR-21 levels; also recorded: decreases mature miR-21 levels"}, {"measurement": "effect on pre-miR-21 levels", "setting": "[1]", "result": "increased pre-miR-21 levels; also recorded: boosted levels of pre-miR 21"}, {"measurement": "IC50", "setting": "[1]; MDA-MB-231, read-out: IC50, affecting pre-miR-21 in cells", "result": 1000, "unit": "nM"}, {"measurement": "effect on mature miR-21 levels", "setting": "[2]", "result": "silenced miR-21"}, {"measurement": "effect on invasion", "setting": "[3]", "result": "decreased the invasive phenotype"}, {"measurement": "effect on invasion", "setting": "[3]; listed as Formula 2", "result": "inhibited the invasive properties of MDA-MB-231"}, {"measurement": "increase of PDCD4 levels", "setting": "[4]; 1 μM, MDA-MB-231", "result": "~50", "unit": "%"}, {"measurement": "effect on PDCD4 protein levels", "setting": "[4]", "result": "de-repress levels of PDCD4 protein"}, {"measurement": "effect on invasion", "setting": "[5]", "result": "decreased the invasive phenotype"}, {"measurement": "protection from Dicer processing", "setting": "[6]", "result": "Protection with compound is observed at U26 and U27"}, {"measurement": "effect on invasion", "setting": "[7]", "result": "decreased the invasive phenotype"}]}
{"smiles": "CCCN(CC(=O)N(CCC)CC(=O)N(CCC)CC(=O)N(CC(=O)NCCOCCOCCOCCOc1ccc(C=C2SC(Nc3ccccc3)=C(C(=O)OCC)C2=O)cc1O)Cc1cn(CCCNC(=O)CCCOc2ccc(-c3nc4cc(-c5ccc(N6CCN(C)CC6)cc5)ccc4[nH]3)cc2)nn1)C(=O)CN(Cc1cn(CCCNC(=O)CCCOc2ccc(-c3nc4cc(-c5ccc(N6CCN(C)CC6)cc5)ccc4[nH]3)cc2)nn1)C(C)=O", "note": "[Compound 5]", "values": [{"measurement": "IFN-7 ELISA", "setting": "[8]", "result": "no activation of the innate antiviral immune response"}, {"measurement": "effect on invasion induced by overexpression of pre-miR-21", "setting": "[9]", "result": "decreased invasion"}, {"measurement": "effect on invasion induced by overexpression of pre-miR-21", "setting": "[9]; listed as Formula 5", "result": "inhibited invasion"}, {"measurement": "effect on invasion", "setting": "[9]; MCF-10a, no pre-miR-21 overexpression", "result": "no effect on invasion"}, {"measurement": "effect on pre-miR-21 upon siRNA ablation of RNase L", "setting": "[1]; MDA-MB-231", "result": "diminished effects"}, {"measurement": "effect on pre-miR-21 upon siRNA ablation of RNase L", "setting": "[1]; MDA-MB-231, listed as Formula 5", "result": "decreased the ability of Formula 5 to cleave pre-miR-21"}, {"measurement": "period over which significantly decreased miR-21 levels were observed after a single dose", "setting": "[1]; MDA-MB-231", "result": 96, "unit": "h"}, {"measurement": "enhanced activity for affecting miR-21 levels over parent 2", "setting": "[1]; MDA-MB-231", "result": 20, "unit": "fold"}, {"measurement": "potency of enzymatic cleavage versus bleomycin conjugate of 2", "setting": "[1]; MDA-MB-231", "result": 10, "unit": "fold"}, {"measurement": "effect on mature miR-21 levels", "setting": "[1]", "result": "decreased miR-21 levels"}, {"measurement": "effect on pre-miR-21 levels", "setting": "[1]", "result": "decreased pre-miR-21"}, {"measurement": "effect on pre-miR-21 levels", "setting": "[1]; listed as Formula 5", "result": "diminished"}, {"measurement": "IC50", "setting": "[1]; MDA-MB-231, read-out: IC50, affecting miR-21 levels", "result": "~50", "unit": "nM"}, {"measurement": "effect on mature miR-21 levels", "setting": "[2]", "result": "decreased mature miR-21 levels"}, {"measurement": "effect on mature miR-21 levels", "setting": "[2]; listed as Formula 5", "result": "significantly inhibited miR-21 levels"}, {"measurement": "effect on invasion upon transient expression of pre-miR-21", "setting": "[3]", "result": "ablated"}, {"measurement": "effect on invasion upon transient expression of pre-miR-21", "setting": "[3]; listed as Formula 5", "result": "ablated the inhibitory effect"}, {"measurement": "effect on invasion", "setting": "[3]", "result": "significant decrease of invasion"}, {"measurement": "effect on invasion", "setting": "[3]; listed as Formula 5", "result": "effectively inhibited invasion"}, {"measurement": "effect on PDCD4 protein levels", "setting": "[4]", "result": "de-repress levels of PDCD4 protein"}, {"measurement": "effect on invasion", "setting": "[5]; listed as Formula 5", "result": "decreased invasiveness"}, {"measurement": "levels of mRNAs associated with the antiviral innate immune response", "setting": "[10]; 5 50 nM, 2′-5′ A4 500 nM transfected", "result": "No upregulation"}, {"measurement": "modulation of innate immunity biomarkers (RT-qPCR and ELISA)", "setting": "[10]; MDA-MB-231", "result": "No significant changes were observed"}, {"measurement": "effect on invasion", "setting": "[7]; listed as Formula 5", "result": "decreased invasiveness"}]}
